The values below come from ChEMBL document CHEMBL2434925, “Synthesis and antiviral activity of a novel class of (5-oxazolyl)phenyl amines” (Eur J Med Chem, 2013).

One data set has as its system Coxsackievirus B6. The data set is described as follows: Antiviral activity against Coxsackie B6 virus Schmitt in african green monkey Vero cells assessed as inhibition virus-induced cytopathic effect after 48 hrs. Particulars: Enterovirus B. Type of data set: functional, organism-based.
A short description of data set [1]: Cytotoxicity against african green monkey Vero cells after 96 hrs by MTT assay. Particulars: chlorocebus sabaeus. Type of data set: cell-based. A general note: Formazan colour is commonly taken as a measure of viable cells.
For the next data set, the system named is Coxsackievirus B3. As to the kind of experiment: Antiviral activity against Coxsackie B3 virus Nancy in african green monkey Vero cells assessed as inhibition virus-induced cytopathic effect after 48 hrs. Type of data set: functional, organism-based. Conditions: Enterovirus B. In general terms: Damage to the host cells serves as the signal in cytopathic effect assays.

The nature of data set [2]: Selectivity index, ratio of CC50 for african green monkey Vero cells to IC50 for Coxsackie B3 virus Schmitt. Type of data set: functional.
Data set [3] in a line: Cytotoxicity against human Huh7.5 cells after 96 hrs by MTT assay. Type of data set: cell-based, Huh-7.
Data set [4] is described as follows: Selectivity index, ratio of CC50 for african green monkey Vero cells to IC50 for Coxsackie B3 virus Nancy. Type of data set: functional.
Another data set has as its system Hepatitis C virus. The data set is described as follows: Antiviral activity against HCV expressing pFL-J6/JFH/JC1 infected in human Huh7.5 cells assessed as inhibition of viral RNA synthesis after 96 hrs by one-step RT-PCR analysis. Conditions: Huh-7, 96 h. Type of data set: functional, organism-based, Hepacivirus hominis.
Data set [5] can be described thus: (§1) Selectivity index, ratio of CC50 for human Huh7.5 cells to IC50 for HCV expressing pFL-J6/JFH/JC1. Type of data set: functional, Huh-7.
A further data set relates to Huh-7. The data set is described as §1. Type of data set: functional.

On to `COc1cc(NCc2cccnc2Cl)ccc1-c1cnco1`, for which the 50% inhibitory concentration (IC50) in the data set with Coxsackievirus B6 is 3.33 µM; with Coxsackievirus B3, 4.21 µM; in the data set with Hepatitis C virus, 1.8 µM. Also, the CC50 at 96 h in data set [1] came out at 40.6 µM; in data set [3], 40.5 µM. In addition, the “Ratio CC50/IC50” value in data set [2] is recorded as 12.2; in data set [4] it was 9.7; in data set [5] it was 22.5.
As to `COc1cc(NCc2ccc(-c3ccccc3)s2)ccc1-c1cnco1`, the IC50 with Coxsackievirus B6 was determined as 0.75 µM; in the data set with Coxsackievirus B3, 2.26 µM; in the data set on Hepatitis C virus it was 0.92 µM. Further, the results for the CC50 at 96 h in data set [1] and in [3] were 6.82 µM and 26 µM, respectively. For the same compound, the “Ratio CC50/IC50” value in [2] is 9.1; in [4], 3; in data set [5] it was 28.3.
Consider `COc1cc(NCc2ccco2)ccc1-c1cnco1`, for which the IC50 in the data set with Coxsackievirus B6 stood at 6.96 µM; in the data set on Coxsackievirus B3, 7.6 µM; in the data set on Hepatitis C virus, 1.06 µM. In addition, the CC50 at 96 h in [1] worked out at 57 µM; in [3], 80 µM. The figures for the “Ratio CC50/IC50” value in data set [2], in data set [4] and in data set [5] were 8.2, 7.5 and 75.4, respectively.
As to `COc1cc(NCc2cccs2)ccc1-c1cnco1`, the IC50 with Coxsackievirus B6 was 1.54 µM; in the data set on Coxsackievirus B3, 0.94 µM; with Hepatitis C virus, 0.28 µM. Also, the CC50 at 96 h amounted to 17.9 µM in data set [1] and 51.3 µM in [3]. Moreover, the “Ratio CC50/IC50” value was found to be 11.7 in data set [2], 19.1 in [4] and 183.3 in [5].
With `COc1ccc(O)c(CNc2ccc(-c3cnco3)c(OC)c2)c1`, the IC50 in the data set on Coxsackievirus B6 was found to be 22.7 µM; in the data set on Coxsackievirus B3 it was 9.96 µM; in the data set on Hepatitis C virus, 9.95 µM. The CC50 at 96 h in data set [1] was 98.2 µM; in [3], over 100 µM. The figures for the “Ratio CC50/IC50” value in data set [2], in [4] and in [5] were 4.3, 9.9 and over 10.1, respectively.
For `COc1cc(NCc2scnc2C)ccc1-c1cnco1`, the values for the concentration for half-maximal inhibition (IC50) with Coxsackievirus B6, in the data set on Coxsackievirus B3 and with Hepatitis C virus were 10.6 µM, 5.67 µM and 6.88 µM, respectively. In addition, the half-maximal cytotoxic concentration (CC50) at 96 h in data set [1] was 73.7 µM; in data set [3], 58.5 µM. Besides, the “Ratio CC50/IC50” value in data set [2] is listed as 7; in data set [4], 13; in [5], 8.5.
In the case of `COc1cc(NCc2cncs2)ccc1-c1cnco1`, the IC50 in the data set on Coxsackievirus B6 is 11.3 µM; in the data set on Coxsackievirus B3 it was 19.6 µM; in the data set with Hepatitis C virus, 0.73 µM. For the same compound, the figures for the CC50 at 96 h in [1] and in [3] were 232 µM and 68.9 µM, respectively. Also, the “Ratio CC50/IC50” value stood at 20.5 in data set [2], 11.8 in [4] and 94.4 in [5].
Take `CCC[C@H](NC(=O)[C@@H]1[C@H]2CCC[C@H]2CN1C(=O)[C@@H](NC(=O)[C@@H](NC(=O)c1cnccn1)C1CCCCC1)C(C)(C)C)C(=O)C(=O)NC1CC1` [TELAPREVIR]: in data set [3], the midpoint of cytotoxicity, the CC50 at 96 h, lay at 37.5 µM. The IC50 in the data set with Hepatitis C virus is under 0.14 µM. For the same compound, the Ratio CC50/IC50 with Huh-7 was over 268.
Consider `COc1cc(NCc2ccc(Cl)s2)ccc1-c1cnco1`, for which the IC50 with Coxsackievirus B6 is 0.84 µM; in the data set with Coxsackievirus B3, 1.37 µM; with Hepatitis C virus it was 0.33 µM. Further, the CC50 at 96 h was 53.8 µM in [1] and 43.2 µM in data set [3]. Besides, the “Ratio CC50/IC50” value in data set [2] was 64; in data set [4] it was 39.3; in [5], 130.8.
`COc1ccc(-c2cnco2)cc1NCc1cccs1`: the IC50 in the data set on Coxsackievirus B6 is 11.3 µM; in the data set on Coxsackievirus B3, 25.9 µM; in the data set with Hepatitis C virus, 3.08 µM. Besides, the 50% cytotoxic concentration (CC50) at 96 h in [1] is 53.8 µM; in data set [3], over 100 µM. Moreover, the “Ratio CC50/IC50” value was 4.8 in data set [2], 2.1 in [4] and over 32.5 in data set [5].
On to `COc1cc(NCc2ccc(C)s2)ccc1-c1cnco1`, for which the half-inhibitory concentration (IC50) in the data set with Coxsackievirus B6 is 2.1 µM; in the data set with Coxsackievirus B3, 3.52 µM; in the data set with Hepatitis C virus, 2.05 µM. In addition, the results for the CC50 at 96 h in data set [1] and in data set [3] were 24.7 µM and 34.4 µM, respectively. In addition, the “Ratio CC50/IC50” value is on record as 11.8 in data set [2], 7 in data set [4] and 16.8 in data set [5].

A word on the IC50: it is the concentration needed to halve the response being measured. Usually CC50 stands for the concentration at which the toxic effect on the cells reaches its halfway point.
